By melting point is commonly meant the temperature of the solid-liquid transition.

The compound `CN(C)C(=O)c1cc(-c2ccccc2)c(=O)[nH]c1-c1c(Cl)cccc1C#N` showed a melting point of 264 to 267 °C.
As for `COC(=O)COc1ccc(C2C(=O)Oc3c2cc(C(C)(C)C)cc3C(C)(C)C)cc1` (stereo not given), the figure is 115 to 117 °C.
Compound `CCC(=O)S(=O)(=O)c1ccc(C=C(C)c2ccc3c(c2)C(C)(C)CCC3(C)C)cc1` came in with a melting point of 140 to 141 °C.
As for `Cc1cc(C)cc(C(=O)/C=C/c2nc[nH]c2C)c1`, the melting point fell in the range of 165 to 166 °C.
On to `NS(=O)(=O)c1ccc2c(c1)C(=NO)CCC2`, for which the melting point lay within 162 to 164 °C.
With `CC#Cc1ccccc1S(N)(=O)=O`, the melting point lay in the range of 147 to 149 °C.
`CC(=O)O[C@H]1C=C(Br)C(=O)[C@@H]2O[C@H]12` registered a melting point of 93 to 94 °C.
`CC(=O)N(O)C(C)c1cc2ccccc2o1` (stereo not given): the melting point was in the range of 130 to 132 °C.
In the case of `CCN(CC)Cc1ccc2c(c1)ncn2-c1cccc(-c2nccs2)c1` it was 152 °C.
As for `CN(C)c1nc(N)nc(-c2cc(Cl)ccc2Cl)n1`, the figure is 178 to 179 °C; as for `CC(=O)Nc1cnc2cccc(Oc3cc(-c4ccc(C(F)(F)F)cc4)ncn3)c2n1`, 237 °C; as for `CCCCCCCCCCCCCCCCNc1ccc(C(=O)OCCCCO)cc1`, 61 to 63 °C.
As for `OC(CSCc1ccc(Cl)cc1)(Cn1cncn1)c1ccc(Cl)cc1Cl` (stereo not given), the figure is 106 to 107 °C; as for `COC(=O)C1=C(C)CN(c2ccccc2)C1=O`, 143 to 145 °C.
Consider `CCCNC(=O)NS(=O)(=O)c1cc2c(cc1OC)OCC(NC(=O)c1cc(Cl)ccc1OC)C2` (stereo not given), for which the melting point was in the range of 203 to 205 °C.
In the case of `O=C(NCCCCCCCCCCCCO)OC1CCN(C(=O)Oc2ccc(Oc3ccccc3)cc2)CC1` it was 75 to 76 °C; in that of `CC(C)n1nc(-c2nc(O)cnc2-c2ccccc2)ccc1=O`, 198 to 200 °C; in that of `O=C(Nc1cc(Cl)c([N+](=O)[O-])cc1O)c1ccccc1`, less than 250 °C.
In the case of `CC(C)(C)OC(=O)NCOc1ccccc1C(=O)O` it was 141 to 144 °C; in that of `O=C(C(=O)c1cccc(Br)c1)c1ccccc1`, 78 to 82 °C.
In the case of `CCC(Oc1ccc(-c2ccc(C#N)c(Cl)c2)cc1)C(O)CCc1cccnc1` (stereo not given) it was 99 to 100 °C; in that of `CCCCCCCNC(=O)n1nc(Oc2ncc(C(F)(F)F)cc2Cl)c(Cl)c1C`, 67 to 68 °C.
Compound `CCOC(=O)c1c(C(F)(F)F)nc(C(F)F)c(C(=O)O)c1NC1CC1` returned a melting point of 120 to 122 °C.
In the case of `CCCCC(CC)COC(=O)C(C#N)=C1C=C(C)N(CCCC)C(C)=C1` (stereo not given) it was 69 to 70 °C; in that of `O=[N+]([O-])c1ccc(N2CCN3CCC2CC3)nc1`, 143 to 146 °C.
In the case of `CCOC(=O)c1nc(Cl)n2c1c(Cl)nc1ccccc12` it was 132 to 135 °C; in that of `Cc1cc(-c2cc3cc(OCCNC[C@H](O)COc4ccccc4F)ccc3o2)no1`, 118 to 121 °C.
In the case of `COc1cccc(CCNC2(c3ccccc3Cl)C(=O)Nc3ccc(Cl)cc32)c1` (stereo not given) it was 155 to 160 °C; in that of `CN(C)c1ccc(-c2nc(Cl)c(CC(N)=O)n2Cc2ccccc2)cc1`, 215 to 216 °C.
`CCN(CC)C(=O)n1cnc(S(=O)(=O)CC2CC2)n1` yielded a melting point of 68 to 74 °C.
As to `O=c1[nH]c2c(-c3ccccc3F)nnn2c2ccccc12`, the melting point lay in the range of 238 to 241 °C.
As for `Cc1noc([C@@H](Cc2ccccc2)NC(=O)[C@@H](Cc2ccc3ccccc3c2)NC(=O)c2cccc(CNC(=O)OC(C)(C)C)c2)n1`, the figure is 176 to 178 °C; as for `C=C1N=C(c2ccccc2F)c2cc(Cl)ccc2C(=O)C1N(C)C` (stereo not given), 224 to 226 °C; as for `COC(=O)C1=C(C#N)NC(C)=C(C(=O)OCC(C)C)C1c1ccccc1C#N` (stereo not given), 196 to 198 °C.
As for `CC(C)S(=O)(=O)c1cc(OCCc2ccccn2)c2[nH]nc(Nc3ncc(CN4CCOCC4)s3)c2c1`, the figure is greater than 190 °C.
The compound `Cn1c(C(F)(F)F)cc(=O)n(-c2c(F)cc(Cl)c3cc(CS(C)(=O)=O)oc23)c1=O` came in with a melting point of 209 to 211 °C.
In the case of `COc1ccc(C(=O)Nc2ccc(F)cc2)cc1NS(=O)(=O)c1cccc(C#N)c1` it was 221 to 225 °C.
In the case of `COC(=O)C(=CNc1ccnc(-c2ccncc2)n1)C(=O)OC` it was 209 to 211 °C; in that of `COc1ccccc1-c1cn(-c2ccccc2)nc1O`, 165 to 167 °C; in that of `Cc1ccc2nc(CN3CCN(c4ccc(F)cc4)CC3)cn2c1`, 112 °C.
For `CC(=O)C1=CCC2C3CCC4CC=CCC4(C)C3CCC12C` (stereo not given), the melting point lay in the range of 143 to 145 °C.
As for `CC(=Cc1ccc(N)cc1)c1ccc2c(c1)C(C)(C)CCC2(C)C`, the figure is 106 to 108 °C.
Compound `Cc1oc(-c2ccccc2)nc1COc1nn(Cc2ccc(Oc3ccccc3)cc2)cc1CCC(=O)O` returned a melting point of 120 to 121 °C.
`CCOC(=O)Cn1c(-c2ccc3c(c2)OCCO3)nc2ccccc21`: the melting point fell in the range of 113 to 114 °C.
As for `O=C(NCCCl)Nc1ccc2cn[nH]c2c1`, the figure is 253 to 258 °C; as for `O=C(OCc1ccccc1)N1CCC(Nc2nc3cccnc3n2Cc2ccc(F)cc2)CC1`, 130 °C; as for `CCOC(=O)c1c([N+](=O)[O-])c(-c2cccc([N+](=O)[O-])c2)[nH]c(=O)c1C(=O)OCC`, 188 to 190 °C.
In the case of `O=C(NCC12CC3CC(CC(C3)C1)C2)c1cc(N2CC2)ccc1Cl` it was 154 to 155 °C; in that of `CCCOc1ccc(-c2ccc3c(c2)C(C)(C)CCC3(C)C)cc1-c1ccc(C(=O)O)cc1`, 199 to 204 °C; in that of `CCCCCc1ccc(CCC2CCC(C#N)CC2)cc1` (stereo not given), 22.4 °C.
As for `C=Cn1cc(C(=O)O)c(=O)c2cc(F)c(N3CCN(C(=O)OCC)CC3)nc21`, the figure is 246 to 248 °C; as for `N#CN=C(Nc1cccnc1)NC(NC(=O)c1ccc(Cl)cc1)C1CC1` (stereo not given), 137 to 139 °C; as for `CC1(S(=O)(=O)N2C[C@@H](Cl)C[C@@H]2CCl)C=CC=CC1` (stereo not given in full), 103 to 105 °C.
With `CNc1nc(C)c(-c2cccnc2)s1`, the melting point lay in the range of 152 to 153 °C.
`COc1ccc(C(O)C(C)N)cc1OC` (stereo not given) had a melting point of 131 to 132 °C.
In the case of `Cc1ccc2oc(=O)n(-c3ccnc(N)c3)c2c1` it was 173 to 174 °C.
With `O=C(N[C@H]1CCCNC1=O)OCc1ccccc1`, the melting point was 100 to 102 °C.
As for `CCOC(=O)/C=C(\C)Cl`, the figure is 58 to 60 °C.
As for `OC(CCN1CCC(c2ccc(Cl)cc2)CC1)c1ccc(Cl)cc1` (stereo not given), the figure is 152 to 154 °C; as for `CC(C)(C)OC(=O)c1ccc(O)c(Br)c1`, 106 to 108 °C; as for `Cc1sc(C(N)=O)c2c1-c1c(cnn1CC(F)(F)F)CC2`, 144 to 145 °C.
`COC(=O)CCn1ncc(-c2ccccc2)c1-c1ccccc1` came in with a melting point of 72 to 74 °C.
Compound `COC(=O)c1c(OC)cccc1C(=O)O` yielded a melting point of 140 to 141 °C.
As for `O=C(O)c1cccc(-c2cccc(Oc3ccc(Cl)c(Cl)c3)n2)c1`, the figure is 230 to 231 °C; as for `O=C(OCc1ccccc1)N1CCC(O)(C(=O)O)C1` (stereo not given), 142 to 144 °C.

For the origin of these results see a melting point compilation (Tetko et al.; mined from patent text by program, amines drawn as free bases though some values may be those of a salt).
